Assay results taken from US9695155B2, “Herbicidal substituted pyrimidinyloxy benzene compounds” (E. I. DU PONT DE NEMOURS AND COMPANY, priority 2013, dated 2017).

Legend:
barnyardgrass = assay: Test A preemergence; format: in vivo, Echinochloa crus-galli; conditions: 0 to 100 scale where 0 is no effect and 100 is complete control
How it was run: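 Scoring: eye-based comparison with untreated controls, 0 for no effect through 100 for complete control, at about day 10. Treatments: directed soil spray preemergence; foliar spray postemergence on 2–10 cm plants at the one- to two-leaf stage. Medium: loam soil with sand.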

rice = assay: Test B flooded paddy test; format: in vivo, Oryza sativa; conditions: Flood, 250 g ai/ha, 0 to 100 scale where 0 is no effect and 100 is complete control
How it was run: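 Evaluation is visual, against untreated controls, 13 to 15 days after treatment. Before treatment, plants reached the 2-leaf stage; pots were then flooded 3 cm deep, compound was added to the water, and that level was maintained. Ratings run 0 to 100, with 100 meaning complete control.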

galium = assay: Test C preemergence; format: in vivo, Galium aparine
How it was run: (§1)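 Plants were kept under greenhouse conditions for 13–15 days following spray. Pre-emergent application went to soil (loam–sand), post-emergent to foliage at 1–4 leaves. Evaluation: visual, percent control against untreated checks.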

corn = assay: Test C preemergence; format: in vivo, Zea mays
How it was run: as §1

morningglory [1] = assay: Test C preemergence; format: in vivo, Ipomoea coccinea
How it was run: as §1

yellow nutsedge [2] = assay: Test C preemergence; format: in vivo, Cyperus esculentus
How it was run: as §1

oilseed rape = assay: Test C preemergence; format: in vivo, Brassica napus
How it was run: as §1

blackgrass = assay: Test C postemergence; format: in vivo, Alopecurus myosuroides
How it was run: as §1

morningglory [3] = assay: Test C postemergence; format: in vivo, Ipomoea coccinea
How it was run: as §1

yellow nutsedge [4] = assay: Test C postemergence; format: in vivo, Cyperus esculentus
How it was run: as §1

kochia = assay: Test C postemergence; format: in vivo, Kochia scoparia
How it was run: as §1

wild oat = assay: Test C postemergence; format: in vivo, Avena fatua
How it was run: as §1

[5] = 16 g ai/ha, preemergence, scale 0 to 100 (0 no effect, 100 complete control)
[6] = 62 g ai/ha, preemergence, scale 0 (no effect) to 100 (complete control)
[7] = 125 g ai/ha, preemergence, scale 0 (no effect) to 100 (complete control)
[8] = Preemergence, 31 g ai/ha, scale 0 to 100, 0 no effect, 100 complete control
[9] = 16 g ai/ha, postemergence, 0 is no effect, 100 is complete control
[10] = 31 g ai/ha, postemergence, visual rating, scale 0 to 100 (0 no effect, 100 complete control), 13 to 15 days
[11] = 125 g ai/ha, postemergence, visual rating, scale 0 to 100 (0 no effect, 100 complete control)
[12] = Postemergence, 62 g ai/ha, scale 0 to 100 (0 no effect, 100 complete control)

`CCCOc1cnn(-c2c(C#N)cccc2Oc2ncc(Cl)cn2)c1` [Compound 150] was tested, and the “Plant response rating, Barnyardgrass” value (barnyardgrass; 125 g ai/ha) was 90, the “Barnyardgrass plant response rating” value (barnyardgrass; 500 g ai/ha) was 100 and the “Plant response rating, Rice” value (rice) was 0. The “Galium plant response rating” value (galium; [5]) was 0, the “Galium plant response rating” value (galium; [6]) was 90 and the “Galium plant response rating” value (galium; [7]) was 100. The “Plant response rating, Galium” value (galium; [8]) was 80, the “Corn plant response rating” value (corn; [5]) was 0 and the “Corn plant response rating” value (corn; [6]) was 25. For the same compound, the “Corn plant response rating” value (corn; [7]) was 45, the “Plant response rating, Corn” value (corn; [8]) was 0 and the “Morningglory plant response rating” value (morningglory [1]; [5]) was 0. For the same compound, the “Morningglory plant response rating” value (morningglory [1]; [6]) was 45, the “Morningglory plant response rating” value (morningglory [1]; [7]) was 75 and the “Nutsedge, Yellow plant response rating” value (yellow nutsedge [2]; [5]) was 0. The “Nutsedge, Yellow plant response rating” value (yellow nutsedge [2]; [6]) was 25, the “Nutsedge, Yellow plant response rating” value (yellow nutsedge [2]; [7]) was 40 and the “Oilseed Rape plant response rating” value (oilseed rape; [5]) was 0. The “Oilseed Rape plant response rating” value (oilseed rape; [6]) was 90, the “Oilseed Rape plant response rating” value (oilseed rape; [7]) was 100 and the “Plant response rating (0 to 100), Blackgrass” value (blackgrass; [9]) was 5. For the same compound, the “Blackgrass plant response rating” value (blackgrass; [10]) was 5, the “Plant response rating, Blackgrass” value (blackgrass; [11]) was 10 and the “Plant response rating, Blackgrass” value (blackgrass; [12]) was 10. For the same compound, the “Plant response rating (0 to 100), Morningglory” value (morningglory [3]; [9]) was 40, the “Morningglory plant response rating” value (morningglory [3]; [10]) was 60 and the “Plant response rating, Morningglory” value (morningglory [3]; [11]) was 80. For the same compound, the “Plant response rating, Morningglory” value (morningglory [3]; [12]) was 65, the “Plant response rating (0 to 100), Nutsedge, Yellow” value (yellow nutsedge [4]; [9]) was 0 and the “Nutsedge, Yellow plant response rating” value (yellow nutsedge [4]; [10]) was 0. For the same compound, the “Plant response rating, Nutsedge, Yellow” value (yellow nutsedge [4]; [11]) was 5, the “Plant response rating, Nutsedge, Yellow” value (yellow nutsedge [4]; [12]) was 15 and the “Plant response rating (0 to 100), Kochia” value (kochia; [9]) was 50. For the same compound, the “Kochia plant response rating” value (kochia; [10]) was 55, the “Plant response rating, Kochia” value (kochia; [11]) was 85 and the “Plant response rating, Kochia” value (kochia; [12]) was 55. For the same compound, the “Plant response rating (0 to 100), Oat, Wild” value (wild oat; [9]) was 5, the “Oat, Wild plant response rating” value (wild oat; [10]) was 5 and the “Plant response rating, Oat, Wild” value (wild oat; [11]) was 5. The “Plant response rating, Oat, Wild” value (wild oat; [12]) was 5.

Compound `FC(F)(F)Sc1cnn(-c2ccccc2Oc2ncc(Cl)cn2)c1` [Compound 132, 5-chloro-2-[2-[4-(trifluoromethylthio)-1H-pyrazol-1-yl]phenoxy]pyrimidine] has a pest or weed control at 125 g/ha (barnyardgrass; Echinochloa crus-galli, pre-emergence, 240 h, 125 g ai/ha, read-out: Plant response rating, Barnyardgrass) of 50%, a pest or weed control at 500 g/ha (barnyardgrass; Echinochloa crus-galli, pre-emergence, 240 h, 500 g ai/ha, read-out: Barnyardgrass plant response rating) of 100% and a plant injury at 250 g/ha (rice; Oryza sativa, read-out: Plant response rating, Rice) of 0%. For the same compound, the pest or weed control at 16 g/ha (galium; Galium, pre-emergence, 16 g ai/ha, preemergence, scale 0 to 100 (0 no effect, 100 complete control), read-out: Galium plant response rating) was 0%, the pest or weed control at 62 g/ha (galium; Galium, pre-emergence, 62 g ai/ha, preemergence, scale 0 (no effect) to 100 (complete control), read-out: Galium plant response rating) was 90% and the pest or weed control at 125 g/ha (galium; Galium, pre-emergence, 125 g ai/ha, preemergence, scale 0 (no effect) to 100 (complete control), read-out: Galium plant response rating) was 90%. The pest or weed control at 31 g/ha (galium; Galium, pre-emergence, Preemergence, 31 g ai/ha, scale 0 to 100, 0 no effect, 100 complete control, read-out: Plant response rating, Galium) was 0%, the plant injury at 16 g/ha (corn; Zea mays, pre-emergence, 16 g ai/ha, preemergence, scale 0 to 100 (0 no effect, 100 complete control), read-out: Corn plant response rating) was 0% and the plant injury at 62 g/ha (corn; Zea mays, pre-emergence, 62 g ai/ha, preemergence, scale 0 (no effect) to 100 (complete control), read-out: Corn plant response rating) was 20%. For the same compound, the plant injury at 125 g/ha (corn; Zea mays, pre-emergence, 125 g ai/ha, preemergence, scale 0 (no effect) to 100 (complete control), read-out: Corn plant response rating) was 35%, the Corn plant response rating (crop injury, 0 = no effect, 100 = complete kill) at 31 g/ha (corn; Zea mays, pre-emergence, Preemergence, 31 g ai/ha, scale 0 to 100, 0 no effect, 100 complete control) was 10% and the pest or weed control at 16 g/ha (morningglory [1]; Ipomoea, pre-emergence, 16 g ai/ha, preemergence, scale 0 to 100 (0 no effect, 100 complete control), read-out: Morningglory plant response rating) was 25%. It also gave a pest or weed control at 62 g/ha (morningglory [1]; Ipomoea, pre-emergence, 62 g ai/ha, preemergence, scale 0 (no effect) to 100 (complete control), read-out: Morningglory plant response rating) of 5%, a pest or weed control at 125 g/ha (morningglory [1]; Ipomoea, pre-emergence, 125 g ai/ha, preemergence, scale 0 (no effect) to 100 (complete control), read-out: Morningglory plant response rating) of 5% and a pest or weed control at 31 g/ha (morningglory [1]; Ipomoea, pre-emergence, Preemergence, 31 g ai/ha, scale 0 to 100, 0 no effect, 100 complete control, read-out: Plant response rating, Morningglory) of 0%. The pest or weed control at 16 g/ha (yellow nutsedge [2]; Cyperus, pre-emergence, 16 g ai/ha, preemergence, scale 0 to 100 (0 no effect, 100 complete control), read-out: Nutsedge, Yellow plant response rating) was 100%, the pest or weed control at 62 g/ha (yellow nutsedge [2]; Cyperus, pre-emergence, 62 g ai/ha, preemergence, scale 0 (no effect) to 100 (complete control), read-out: Nutsedge, Yellow plant response rating) was 15% and the pest or weed control at 125 g/ha (yellow nutsedge [2]; Cyperus, pre-emergence, 125 g ai/ha, preemergence, scale 0 (no effect) to 100 (complete control), read-out: Nutsedge, Yellow plant response rating) was 15%. For the same compound, the pest or weed control at 31 g/ha (yellow nutsedge [2]; Cyperus, pre-emergence, Preemergence, 31 g ai/ha, scale 0 to 100, 0 no effect, 100 complete control, read-out: Plant response rating, Nutsedge, Yellow) was 0%, the plant injury at 16 g/ha (oilseed rape; Brassica napus, pre-emergence, 16 g ai/ha, preemergence, scale 0 to 100 (0 no effect, 100 complete control), read-out: Oilseed Rape plant response rating) was 20% and the plant injury at 62 g/ha (oilseed rape; Brassica napus, pre-emergence, 62 g ai/ha, preemergence, scale 0 (no effect) to 100 (complete control), read-out: Oilseed Rape plant response rating) was 100%. It also gave a plant injury at 125 g/ha (oilseed rape; Brassica napus, pre-emergence, 125 g ai/ha, preemergence, scale 0 (no effect) to 100 (complete control), read-out: Oilseed Rape plant response rating) of 100%, a plant injury at 31 g/ha (oilseed rape; Brassica napus, pre-emergence, Preemergence, 31 g ai/ha, scale 0 to 100, 0 no effect, 100 complete control, read-out: Plant response rating, Oilseed Rape) of 85% and a pest or weed control at 16 g/ha (blackgrass; Alopecurus myosuroides, post-emergence, 16 g ai/ha, postemergence, 0 is no effect, 100 is complete control, read-out: Plant response rating (0 to 100), Blackgrass) of 5%. The pest or weed control at 125 g/ha (blackgrass; Alopecurus myosuroides, post-emergence, 125 g ai/ha, postemergence, visual rating, scale 0 to 100 (0 no effect, 100 complete control), read-out: Plant response rating, Blackgrass) was 5%, the pest or weed control at 31 g/ha (blackgrass; Alopecurus myosuroides, post-emergence, Postemergence, 31 g ai/ha, scale 0 to 100 (0 no effect, 100 complete control), 13 to 15 days, read-out: Plant response rating, Blackgrass) was 5% and the pest or weed control at 62 g/ha (blackgrass; Alopecurus myosuroides, post-emergence, Postemergence, 62 g ai/ha, scale 0 to 100 (0 no effect, 100 complete control), read-out: Plant response rating, Blackgrass) was 10%. The pest or weed control at 16 g/ha (morningglory [3]; Ipomoea, post-emergence, 16 g ai/ha, postemergence, 0 is no effect, 100 is complete control, read-out: Plant response rating (0 to 100), Morningglory) was 10%, the pest or weed control at 125 g/ha (morningglory [3]; Ipomoea, post-emergence, 125 g ai/ha, postemergence, visual rating, scale 0 to 100 (0 no effect, 100 complete control), read-out: Plant response rating, Morningglory) was 65% and the pest or weed control at 62 g/ha (morningglory [3]; Ipomoea, post-emergence, Postemergence, 62 g ai/ha, scale 0 to 100 (0 no effect, 100 complete control), read-out: Plant response rating, Morningglory) was 75%. The pest or weed control at 16 g/ha (yellow nutsedge [4]; Cyperus, post-emergence, 16 g ai/ha, postemergence, 0 is no effect, 100 is complete control, read-out: Plant response rating (0 to 100), Nutsedge, Yellow) was 0%, the pest or weed control at 125 g/ha (yellow nutsedge [4]; Cyperus, post-emergence, 125 g ai/ha, postemergence, visual rating, scale 0 to 100 (0 no effect, 100 complete control), read-out: Plant response rating, Nutsedge, Yellow) was 10% and the pest or weed control at 62 g/ha (yellow nutsedge [4]; Cyperus, post-emergence, Postemergence, 62 g ai/ha, scale 0 to 100 (0 no effect, 100 complete control), read-out: Plant response rating, Nutsedge, Yellow) was 0%. The pest or weed control at 16 g/ha (kochia; Bassia scoparia, post-emergence, 16 g ai/ha, postemergence, 0 is no effect, 100 is complete control, read-out: Plant response rating (0 to 100), Kochia) was 10%, the pest or weed control at 125 g/ha (kochia; Bassia scoparia, post-emergence, 125 g ai/ha, postemergence, visual rating, scale 0 to 100 (0 no effect, 100 complete control), read-out: Plant response rating, Kochia) was 95% and the pest or weed control at 62 g/ha (kochia; Bassia scoparia, post-emergence, Postemergence, 62 g ai/ha, scale 0 to 100 (0 no effect, 100 complete control), read-out: Plant response rating, Kochia) was 85%. The pest or weed control at 16 g/ha (wild oat; Avena fatua, post-emergence, 16 g ai/ha, postemergence, 0 is no effect, 100 is complete control, read-out: Plant response rating (0 to 100), Oat, Wild) was 0%, the pest or weed control at 125 g/ha (wild oat; Avena fatua, post-emergence, 125 g ai/ha, postemergence, visual rating, scale 0 to 100 (0 no effect, 100 complete control), read-out: Plant response rating, Oat, Wild) was 5% and the pest or weed control at 62 g/ha (wild oat; Avena fatua, post-emergence, Postemergence, 62 g ai/ha, scale 0 to 100 (0 no effect, 100 complete control), read-out: Plant response rating, Oat, Wild) was 5%.
